# Source: patent publication US10011607B2, “Ethynyl derivatives” (Hoffmann-La Roche Inc., priority 2015, dated 2018)
# Target: human mGlu4 receptor (Homo sapiens (Human), UniProt Q14833)
# Assay: Ca2+ mobilization in vitro assay on recombinant human mGlu4 expressed in HEK293 cells (PAM)
# Type: cell-based
# Conditions: for Emax: HEK293, maximal response in % of maximal stimulatory effect of saturating L-AP4, read-out: Eff. (%); for EC50: HEK293 cells, human mGlu4, in presence of EC20 of L-AP4, read-out: EC50 (nM) mGlu4PAM
# Procedure, shortened: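 HEK293 cells stably expressing human mGlu4 at low level, Fluo-4AM loaded; compound (11 half-log dilutions) pre-incubated 10–30 min at 37 °C, then L-AP4 added at EC20 (determined daily). Peak fluorescence minus basal, normalized to saturating L-AP4; EC50, Hill slope and % Emax from four-parameter fit.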
# Chain of human mGlu4 receptor (Q14833 33-912): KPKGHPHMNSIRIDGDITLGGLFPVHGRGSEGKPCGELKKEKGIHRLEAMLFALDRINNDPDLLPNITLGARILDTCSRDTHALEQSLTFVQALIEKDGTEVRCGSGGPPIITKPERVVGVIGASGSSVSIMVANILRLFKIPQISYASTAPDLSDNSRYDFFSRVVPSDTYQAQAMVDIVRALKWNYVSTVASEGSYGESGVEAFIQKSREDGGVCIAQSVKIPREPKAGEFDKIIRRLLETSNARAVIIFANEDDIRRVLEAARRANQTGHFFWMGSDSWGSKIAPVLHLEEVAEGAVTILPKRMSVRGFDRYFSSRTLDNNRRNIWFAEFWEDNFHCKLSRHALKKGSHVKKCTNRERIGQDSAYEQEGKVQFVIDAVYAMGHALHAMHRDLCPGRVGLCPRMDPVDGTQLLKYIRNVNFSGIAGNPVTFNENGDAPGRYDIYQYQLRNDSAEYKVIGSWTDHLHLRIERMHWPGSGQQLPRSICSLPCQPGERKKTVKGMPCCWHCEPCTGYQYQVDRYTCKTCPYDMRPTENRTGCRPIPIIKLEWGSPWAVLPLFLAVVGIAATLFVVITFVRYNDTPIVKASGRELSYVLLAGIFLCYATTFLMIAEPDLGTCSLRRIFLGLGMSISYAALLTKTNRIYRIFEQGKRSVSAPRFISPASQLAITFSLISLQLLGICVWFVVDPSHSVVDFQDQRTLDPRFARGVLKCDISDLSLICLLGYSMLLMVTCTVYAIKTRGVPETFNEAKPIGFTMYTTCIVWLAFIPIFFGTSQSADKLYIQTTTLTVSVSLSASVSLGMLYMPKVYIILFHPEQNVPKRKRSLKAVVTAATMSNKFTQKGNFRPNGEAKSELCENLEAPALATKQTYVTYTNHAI
smiles,measurement,value
"Cn1nc(N2CCN3C(=O)N(c4c(F)cc(C#Cc5ccccc5)cc4F)C(=O)C[C@@]3(C)C2=O)ccc1=O [Example 49, (9aS)-7-[2,6-difluoro-4-(2-phenylethynyl)phenyl]-9a-methyl-2-(1-methyl-6-oxo-pyridazin-3-yl)-4,9-dihydro-3H-pyrazino[1,2-c]pyrimidine-1,6,8-trione]",Emax,109%
same,EC50,197 nM
"C[C@@]12CC(=O)N(c3c(F)cc(C#Cc4ccccc4)cc3F)C(=O)N1CCN(c1ccnnc1)C2=O [Example 50, (9aS)-7-[2,6-difluoro-4-(2-phenylethynyl)phenyl]-9a-methyl-2-pyridazin-4-yl-4,9-dihydro-3H-pyrazino[1,2-c]pyrimidine-1,6,8-trione]",Emax,133%
same,EC50,74 nM
"Cc1nc(N2CCN3C(=O)N(c4c(F)cc(C#Cc5ccccc5)cc4F)C(=O)C[C@@]3(C)C2=O)cn1CC(F)(F)F [Example 61, (9aS)-7-[2,6-difluoro-4-(2-phenylethynyl)phenyl]-9a-methyl-2-[2-methyl-1-(2,2,2-trifluoroethyl)imidazol-4-yl]-4,9-dihydro-3H-pyrazino[1,2-c]pyrimidine-1,6,8-trione]",Emax,172%
same,EC50,272 nM
"Cn1ccc(N2CCN3C(=O)N(c4c(F)cc(C#Cc5ccccc5)cc4F)C(=O)C[C@@]3(C)C2=O)n1 [Example 63, (9aS)-7-[2,6-difluoro-4-(2-phenylethynyl)phenyl]-9a-methyl-2-(1-methylpyrazol-3-yl)-4,9-dihydro-3H-pyrazino[1,2-c]pyrimidine-1,6,8-trione]",Emax,136%
same,EC50,165 nM
"Cn1nccc1N1CCN2C(=O)N(c3c(F)cc(C#Cc4ccccc4)cc3F)C(=O)C[C@@]2(C)C1=O [Example 65, (9aS)-7-[2,6-difluoro-4-(2-phenylethynyl)phenyl]-9a-methyl-2-(2-methylpyrazol-3-yl)-4,9-dihydro-3H-pyrazino[1,2-c]pyrimidine-1,6,8-trione]",Emax,92%
same,EC50,92 nM
"Cn1cc(N2CCN3C(=O)N(c4c(F)cc(C#Cc5ccccc5)cc4F)C(=O)C[C@@]3(C)C2=O)cn1 [Example 68, (9aS)-7-[2,6-difluoro-4-(2-phenylethynyl)phenyl]-9a-methyl-2-(1-methylpyrazol-4-yl)-4,9-dihydro-3H-pyrazino[1,2-c]pyrimidine-1,6,8-trione]",Emax,135%
same,EC50,90 nM
"CCn1cc(N2CCN3C(=O)N(c4c(F)cc(C#Cc5ccccc5)cc4F)C(=O)C[C@@]3(C)C2=O)cn1 [Example 69, (9aS)-7-[2,6-difluoro-4-(2-phenylethynyl)phenyl]-2-(1-ethylpyrazol-4-yl)-9a-methyl-4,9-dihydro-3H-pyrazino[1,2-c]pyrimidine-1,6,8-trione]",Emax,184%
same,EC50,151 nM
"CC(C)n1cc(N2CCN3C(=O)N(c4c(F)cc(C#Cc5ccccc5)cc4F)C(=O)C[C@@]3(C)C2=O)cn1 [Example 70, (9aS)-7-[2,6-difluoro-4-(2-phenylethynyl)phenyl]-2-(1-isopropylpyrazol-4-yl)-9a-methyl-4,9-dihydro-3H-pyrazino[1,2-c]pyrimidine-1,6,8-trione]",Emax,150%
same,EC50,139 nM
"C[C@@]12CC(=O)N(c3c(F)cc(C#Cc4ccccc4)cc3F)C(=O)N1CCN(c1cn[nH]c1)C2=O [Example 71, (9aS)-7-[2,6-difluoro-4-(2-phenylethynyl)phenyl]-9a-methyl-2-(1H-pyrazol-4-yl)-4,9-dihydro-3H-pyrazino[1,2-c]pyrimidine-1,6,8-trione]",Emax,182%
same,EC50,101 nM
"COCCCn1cc(N2CCN3C(=O)N(c4c(F)cc(C#Cc5ccccc5)cc4F)C(=O)C[C@@]3(C)C2=O)cn1 [Example 72, (9aS)-7-[2,6-difluoro-4-(2-phenylethynyl)phenyl]-2-[1-(3-methoxypropyl)pyrazol-4-yl]-9a-methyl-4,9-dihydro-3H-pyrazino[1,2-c]pyrimidine-1,6,8-trione]",Emax,149%
same,EC50,122 nM
"Cn1cnc(N2CCN3C(=O)N(c4c(F)cc(C#Cc5ccccc5)cc4F)C(=O)C[C@@]3(C)C2=O)n1 [Example 73, (9aS)-7-[2,6-difluoro-4-(2-phenylethynyl)phenyl]-9a-methyl-2-(1-methyl-1,2,4-triazol-3-yl)-4,9-dihydro-3H-pyrazino[1,2-c]pyrimidine-1,6,8-trione]",Emax,138%
same,EC50,244 nM
"Cn1cc(N2CCN3C(=O)N(c4c(F)cc(C#Cc5ccccc5)cc4Cl)C(=O)C[C@@]3(C)C2=O)cn1 [Example 78, (9aS)-7-[2-chloro-6-fluoro-4-(2-phenylethynyl)phenyl]-9a-methyl-2-(1-methylpyrazol-4-yl)-4,9-dihydro-3H-pyrazino[1,2-c]pyrimidine-1,6,8-trione]",Emax,117%
same,EC50,75 nM
"COCCN1CCN2C(=O)N(c3c(F)cc(C#Cc4ccccc4)cc3F)C(=O)C[C@@]2(C)C1=O [Example 79, (9aS)-7-[2,6-difluoro-4-(2-phenylethynyl)phenyl]-2-(2-methoxyethyl)-9a-methyl-4,9-dihydro-3H-pyrazino[1,2-c]pyrimidine-1,6,8-trione]",Emax,122%
same,EC50,137 nM
"COCCCN1CCN2C(=O)N(c3c(F)cc(C#Cc4ccccc4)cc3F)C(=O)C[C@@]2(C)C1=O [Example 80, (9aS)-7-[2,6-difluoro-4-(2-phenylethynyl)phenyl]-2-(3-methoxypropyl)-9a-methyl-4,9-dihydro-3H-pyrazino[1,2-c]pyrimidine-1,6,8-trione]",Emax,132%
same,EC50,135 nM
"C[C@@]12CC(=O)N(c3c(F)cc(C#Cc4ccccc4)cc3F)C(=O)N1CCN(CC(F)(F)F)C2=O [Example 81, (9aS)-7-[2,6-difluoro-4-(2-phenylethynyl)phenyl]-9a-methyl-2-(2,2,2-trifluoroethyl)-4,9-dihydro-3H-pyrazino[1,2-c]pyrimidine-1,6,8-trione]",Emax,172%
same,EC50,112 nM
"CCOC(=O)CCCN1CCN2C(=O)N(c3c(F)cc(C#Cc4ccccc4)cc3F)C(=O)C[C@@]2(C)C1=O [Example 82, Ethyl 4-[(9aS)-7-[2,6-difluoro-4-(2-phenylethynyl)phenyl]-9a-methyl-1,6,8-trioxo-4,9-dihydro-3H-pyrazino[1,2-c]pyrimidin-2-yl]butanoate]",Emax,134%
same,EC50,201 nM
"C[C@@]12CC(=O)N(c3c(F)cc(C#Cc4ccccc4)cc3F)C(=O)N1CCN(Cc1ccccc1F)C2=O [Example 89, (9aS)-7-[2,6-difluoro-4-(2-phenylethynyl)phenyl]-2-[(2-fluorophenyl)methyl]-9a-methyl-4,9-dihydro-3H-pyrazino[1,2-c]pyrimidine-1,6,8-trione]",Emax,98%
same,EC50,149 nM
"C[C@@]12CC(=O)N(c3c(F)cc(C#Cc4ccccc4)cc3F)C(=O)N1CCN(Cc1cccc(F)c1)C2=O [Example 90, (9aS)-7-[2,6-difluoro-4-(2-phenylethynyl)phenyl]-2-[(3-fluorophenyl)methyl]-9a-methyl-4,9-dihydro-3H-pyrazino[1,2-c]pyrimidine-1,6,8-trione]",Emax,109%
same,EC50,187 nM
"C[C@@]12CC(=O)N(c3c(F)cc(C#Cc4ccccc4)cc3F)C(=O)N1CCN(Cc1ccc(F)cc1)C2=O [Example 91, (9aS)-7-[2,6-difluoro-4-(2-phenylethynyl)phenyl]-2-[(4-fluorophenyl)methyl]-9a-methyl-4,9-dihydro-3H-pyrazino[1,2-c]pyrimidine-1,6,8-trione]",Emax,101%
same,EC50,147 nM
"Cn1nccc1CN1CCN2C(=O)N(c3c(F)cc(C#Cc4ccccc4)cc3F)C(=O)C[C@@]2(C)C1=O [Example 97, (9aS)-7-[2,6-difluoro-4-(2-phenylethynyl)phenyl]-9a-methyl-2-[(2-methylpyrazol-3-yl)methyl]-4,9-dihydro-3H-pyrazino[1,2-c]pyrimidine-1,6,8-trione]",Emax,128%
same,EC50,76 nM
"C[C@@]12CC(=O)N(c3c(F)cc(C#Cc4ccccc4)cc3F)C(=O)N1CCN(CCn1ccnc1)C2=O [Example 98, (9aS)-7-[2,6-difluoro-4-(2-phenylethynyl)phenyl]-2-(2-imidazol-1-ylethyl)-9a-methyl-4,9-dihydro-3H-pyrazino[1,2-c]pyrimidine-1,6,8-trione]",Emax,135%
same,EC50,283 nM
"Cc1nccn1CCN1CCN2C(=O)N(c3c(F)cc(C#Cc4ccccc4)cc3F)C(=O)C[C@@]2(C)C1=O [Example 99, (9aS)-7-[2,6-difluoro-4-(2-phenylethynyl)phenyl]-9a-methyl-2-[2-(2-methylimidazol-1-yl)ethyl]-4,9-dihydro-3H-pyrazino[1,2-c]pyrimidine-1,6,8-trione]",Emax,146%
same,EC50,282 nM
"Cn1nccc1CCN1CCN2C(=O)N(c3c(F)cc(C#Cc4ccccc4)cc3F)C(=O)C[C@@]2(C)C1=O [Example 100, (9aS)-7-[2,6-difluoro-4-(2-phenylethynyl)phenyl]-9a-methyl-2-[2-(2-methylpyrazol-3-yl)ethyl]-4,9-dihydro-3H-pyrazino[1,2-c]pyrimidine-1,6,8-trione]",Emax,123%
same,EC50,219 nM
"Cn1cc(CCN2CCN3C(=O)N(c4c(F)cc(C#Cc5ccccc5)cc4F)C(=O)C[C@@]3(C)C2=O)cn1 [Example 101, (9aS)-7-[2,6-difluoro-4-(2-phenylethynyl)phenyl]-9a-methyl-2-[2-(1-methylpyrazol-4-yl)ethyl]-4,9-dihydro-3H-pyrazino[1,2-c]pyrimidine-1,6,8-trione]",Emax,129%
same,EC50,125 nM
"COC[C@@]12CC(=O)N(c3c(F)cc(C#Cc4ccccc4)cc3F)C(=O)N1CCN(c1cccnc1)C2=O [Example 103, (9aR)-7-[2,6-difluoro-4-(2-phenylethynyl)phenyl]-9a-(methoxymethyl)-2-(3-pyridyl)-4,9-dihydro-3H-pyrazino[1,2-c]pyrimidine-1,6,8-trione]",Emax,118%
same,EC50,169 nM
